Values of other authors, collected in US9617305B2 (priority 2011, dated 2017).
Where a SMILES comes first, the peptide text is derived from it. Bridges are numbered along the chain shown (N, C = ends).

Conditions: after oral administration at therapeutic dose levels

C[C@@H]1NC(=O)[C@@H]2CCCN2C(=O)[C@H](CC(N)=O)NC(=O)[C@@H]2CSSC[C@H](N)C(=O)N[C@H]3CSSC[C@H](NC1=O)C(=O)N[C@@H]([C@@H](C)O)C(=O)NCC(=O)N[C@H](C(=O)N[C@@H](Cc1ccc(O)cc1)C(=O)O)CSSC[C@H](NC(=O)[C@H](Cc1ccc(O)cc1)NC(=O)[C@H](CCC(=O)O)NC3=O)C(=O)N2 [linaclotide, Linaclotide] (H-CCEYCCNPACTGCY-OH; disulfide 1-6, 2-10, 5-13)
levels of linaclotide seen systemically: no detectable levels
